Measurements taken from ChEMBL document CHEMBL1151067, “Stereoselectivity in the hydrolysis of synthetic esters by cultured cancer cells and normal tissue extracts of rat” (1994).

Columns and labels:
[1] = system: IA-XsSBR cell line; assay: Stereoselectivity in enzymic hydrolysis by rat cancer IA-XsSBR cells; type: functional
[2] = system: CCRF S-180; assay: Stereoselectivity in enzymic hydrolysis of compound by mouse sarcoma S180 cells; type: functional
[3] = species on record: Rattus norvegicus; assay: Stereoselectivity in enzymic hydrolysis by normal rat muscle extracts; type: functional, Muscle tissue
[4] = system: U-937; assay: Stereoselectivity in enzymic hydrolysis by human cancer U937 (histiocytic lymphoma) cells; type: functional
[5] = system: COLO 320; assay: Stereoselectivity in enzymic hydrolysis by human cancer COLO 320 (colon adenocarcinoma) cells; type: functional
[6] = system: NRK-49F; assay: Stereoselectivity in enzymic hydrolysis by rat cancer NRK49F cells; type: functional
[7] = species on record: Rattus norvegicus; assay: Stereoselectivity in enzymic hydrolysis by normal rat liver extracts; type: functional
[8] = system: MIA PaCa-2; assay: Stereoselectivity in enzymic hydrolysis by human cancer MIA PaCa-2 (pancreatic carcinoma) cells; type: functional
[9] = system: XC; assay: Stereoselectivity in enzymic hydrolysis by rat cancer XC cells; type: functional
[10] = species on record: Rattus norvegicus; assay: Stereoselectivity in enzymic hydrolysis by normal rat pancreas extracts; type: functional
[11] = system: ARIP cell line; assay: Stereoselectivity in enzymic hydrolysis by rat cancer ARIP cells; type: functional
[12] = species on record: Rattus norvegicus; assay: Stereoselectivity in enzymic hydrolysis by normal rat intestine extracts; type: functional
[13] = species on record: Rattus norvegicus; assay: Stereoselectivity in enzymic hydrolysis by normal rat kidney extracts; type: functional
[14] = system: Anr4; assay: Stereoselectivity in enzymic hydrolysis by rat cancer Anr4 cells; type: functional
[15] = system: CCRF S-180; assay: Stereoselectivity in enzymic hydrolysis by mouse sarcoma S180 cells; type: functional

Compound	Conversion rate [1] [%]	Conversion rate [2] [%]	Conversion rate [3] [%]	Conversion rate [4] [%]	Conversion rate [5] [%]	Conversion rate [6] [%]	Conversion rate [7] [%]	Conversion rate [8] [%]	Conversion rate [9] [%]	Conversion rate [10] [%]	Conversion rate [11] [%]	Conversion rate [12] [%]	Conversion rate [13] [%]	Conversion rate [14] [%]	Conversion rate [15] [%]
CCOC(=O)C(C)c1ccccc1 (stereo not drawn)	1.4	18.1	1	1.4	1.2	8.2	11.5	11.9	0.6	1.2	6.9	5	11.2	0.5	–
CC(C(=O)OCCC1CCCCC1)c1ccccc1 (stereo not drawn)	–	–	–	–	–	–	–	–	–	–	–	–	–	–	6.1
CCOC(=O)C(NC=O)c1ccccc1 (stereo not drawn)	1.3	–	5.9	3.5	3.8	2.2	2.7	–	1.2	14.3	1.6	1.4	7.6	1.2	3.6
CCOC(=O)C(NC(C)=O)c1ccccc1 (stereo not drawn)	–	–	–	–	–	–	–	–	–	–	–	–	–	–	4.3
CCOC(=O)C(O)c1ccccc1 (stereo not drawn)	–	–	–	–	–	–	–	–	–	–	–	–	–	–	21.2
CCOC(=O)C(C)Oc1ccccc1 (stereo not drawn)	12.2	–	18	–	–	4.5	52.5	35.9	23	33.3	5.7	5	53	14.2	38.9
CCCCCCCCOC(=O)C(C)c1ccccc1 (stereo not drawn)	–	–	–	–	–	–	–	–	–	–	–	–	–	–	11
CCOC(=O)C(Cc1ccccc1)NC(C)=O (stereo not drawn)	30.5	–	31.9	17.5	13.8	35.1	48.2	42	42	43.8	37.2	37.3	23.2	30.6	12.9
CCOC(=O)C(OC)c1ccccc1 (stereo not drawn)	–	–	–	–	–	–	–	–	–	–	–	–	–	–	4.3
